Test results as given in paper PMC9643456, “Matching amino acids membrane preference profile to improve activity of antimicrobial peptides” (Communications Biology, 2022).
Converted amounts (≈) assume the structure as drawn. Where two headings read alike, the source gives them in different places. Ends that are not written are not given here.

Legend:
A. baumannii strains = assay: microbe, parasite or virus in culture
Procedure: (§1) Twenty-six A. baumannii strains were clinically isolated and gifted to us by the Kyungpook National University School of Medicine. One A. baumannii strain (ATCC 17978) was purchased and gifted to us by Kyungpook National University School of Medicine. One A. baumannii strain and 10 K. pneumoniae strains (NCCP) were purchased from the National Culture Collection for Pathogens.
(§2) To assess antimicrobial activity, the MIC50 and MIC90 were measured using broth microdilution following CLSI guidelines. […] Each experiment was performed in triplicate. Meropenem (Sigma, Darmstadt, Germany) and colistin were used as control antibiotics. Cation-adjusted Mueller–Hinton broth (CAMHB) (Becton, Dickinson and Company, Franklin Lakes, USA) with supplied calcium (50 mg/L) and magnesium (10 mg/L) was used for the CLSI-test condition. Bacteria in midlog phase and peptides were separately diluted in CAMHB. The bacteria and peptide solutions were then mixed in 96-well polyethylene plates (SPL, Gyeonggi-do, Korea) and incubated for 18 h at 37 °C. The final concentration for bacteria was 5 × 10^5 CFU/ml. […] The MIC was defined to be the lowest concentration of peptide without visible turbidity by comparing with control antibiotics with the unaided eye. […] Each experiment was performed in triplicate. MICs in albumin and acetic acid solutions were measured using the same protocol but with 0.2% bovine serum albumin (Bovogen, Keilor, Australia), 0.01% acetic acid (Merck, New Jersey, USA), and CAMHB with both calcium and magnesium. In addition, MICs used in the antibiotic resistance acquisition test, the outer–inner membrane permeation test, and the transmembrane potential test and for FE-SEM were individually determined. The final bacterial concentrations used were as follows: for resistance acquisition, optical density (OD) 0.01; for outer–inner membrane permeability assays (LB), OD 0.1; for the transmembrane potential test, 1 × 10^8 CFU/ml (OD 0.171); […]. Inhibitory activity unidentifiable by direct observation was determined by counting the CFUs. Each experiment was performed at least twice.

K. pneumonia strains = assay: microbe, parasite or virus in culture; details: Klebsiella pneumoniae
Procedure: as §1, §2

human red blood cells = assay: Hemolytic activity; assay type: cell-based; details: red cells of human, 18 h
In short: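 Haemolysis was read as A540 of cleared supernatants after 18 h at 37 °C, with 0% and 100% lysis set by peptide-free PBS and 1% Triton X-100 and melittin as positive control. Human RBCs were at 4% final, peptide serially diluted 100–0.78 μM; three replicates.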

[1] = Maximum soluble concentration / turbidity; assay type: physicochemical
Procedure: Supplementary Methods Bacteria preparation, Antimicrobial peptides preparation, Minimal-inhibitory-concentration measurements, Hemolysis-activity measurements, Tryptophan fluorescence measurements, Isothermal titration calorimetry measurements, Bacteria membrane ion permeation measurements, Outer-inner membrane permeation, Field-emission scanning electron microscopy and Antimicrobial kinetics were performed as described in Materials and Methods. Liposome (LUV) preparation. Bacterial-membrane-mimic DMPC/DMPG unilamellar vesicles (LUV) and mammalian- membrane-mimic PC/cholesterol vesicles with 100-nm diameters were prepared by extrusion. LiposoFast Liposome Factory Basic unit with stabilizer (Avestin, Ottawa, Canada) was used to extrude liposomes 50 times through a polycarbonate membrane filter (pore diameter, 100 nm; filter diameter, 0.75 inches) (Avestin). […] rac-(1-glycerol)) (sodium salt) (DMPG) (Avanti, Alabama, USA); 1,2-Dimyristoyl-sn-glycero-3-phosphocholine (DMPC) (Avanti); and cholesterol (Sigma, Darmstadt, Germany) were used. For circular dichroism, isothermal titration calorimetry, tryptophan fluorescence, and dynamic light scattering experiments, liposomes were reconstructed and resuspendedwith phosphate-buffered saline (PBS; Welgene Inc, Gyeongsangbuk-do, Korea). For calcein-permeation tests, liposomes were reconstructed with calcein solutions (80 mM, 40 mM, 30 mM, 20 mM, and 10 mM) (Sigma, Darmstadt, Germany), purified with Sephadex-G50 columns (Pharmacia biotech, Stockholm, Sweden), and resuspended with PBS. Maximum-soluble -concentration measurements. […] turbidity with PBS. The lowest concentration of peptide without visible turbidity was determined to be the maximu m soluble concentration. Each experiment was performed at least twice. Circular dichroism (CD) spectrum. DMPC/PG -liposome, PC/cholesterol -liposome, and peptide stock solutions were diluted in PBS. For circular dichroism, PBS with neither liposome nor peptides was also prepared. Liposomes and peptides were mixed to […] Samples were transferred into type J/1 cuvettes (Jasco, Tokyo, Japan). Cuvettes were placed into the J -815 circular -dichroism spectrometer (Jasco, Tokyo, Japan). Measurement parameters were as follows: wavelength, 190 -260 nm; data pitch, 0.2 nm; bandwidth, 1.00 nm; […] Each experiment was performed in triplicate. Data below 197 nm was not analyzed because o f experimental difficulties in obtaining those spectra. Each experiment was performed at least twice. Artificial membrane calcein permeation measurements. Calcein fluorescence was used to measure peptide -induced liposome permeation. Calcein solutions (10 mM, 20 mM, or 60 mM) containing PC/PG liposomes and peptides were diluted in PBS ( ×1, ×2, ×3, ×8). […] Liposome solutions (180 μl) were transferred to wells of black, clear -bottomed 96 -well plates (Costar, New York, USA). Peptide […] Liposome-containing plates and peptide -containing plates were inserted into a Flexstation 3 Multi -Mode Microplate Reader (Molecular Devices, California, USA). Peptide solutions (20 μl) were transferred and mixed with liposome solution automatical ly after 30 sec. […] Measurement parameters were as follows: excitation, 490 nm; emission, 520 nm; temperature, 37 °C. […] was transferred and mixed with the liposome -peptide solu tions automatically after 300 sec to acquire fluorescence at maximum leakage. […] Fluorescence measured between 0 -300 sec after addition of 0 μg/ml peptide was considered the baseline. Each experiment was performed at least twice. Dynamic light scattering (DLS) measurements. Dynamic light scattering was used to measure peptide -induced liposome volume changes. PC/PG -liposome stock solutions and peptides were resuspended in PBS. Liposomes and peptides were mixed to […]

MDR A. baumannii = assay: microbe, parasite or virus in culture
In short: (§3)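 MIC was read by eye as the lowest peptide concentration leaving no visible turbidity. Peptide and mid-log cells (final 5 × 10^5 CFU/ml) were combined in cation-adjusted Mueller–Hinton broth containing 50 mg/L calcium and 10 mg/L magnesium and incubated 18 h at 37 °C.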

MDR E. faecalis = assay: microbe, parasite or virus in culture
In short: as §3

MDR P. aeruginosa = assay: microbe, parasite or virus in culture
In short: as §3

MDR S. aureus = assay: microbe, parasite or virus in culture
In short: as §3

[2] = CAMHB plus 0.2% bovine serum albumin and 0.01% acetic acid, values marked * in Table 2

C[C@@H](O)[C@H]1C(=O)N2C(C(=O)O)=C(S[C@@H]3CN[C@H](C(=O)N(C)C)C3)[C@H](C)[C@H]12 [Meropenem]
MIC50 (A. baumannii strains; Acinetobacter baumannii): ≥ 20 µM
MIC90 (A. baumannii strains; Acinetobacter baumannii): ≥ 20 µM
MIC (A. baumannii strains; Acinetobacter baumannii, ATCC17978, read-out: MIC, A. baumannii ATCC 17978): < 0.31 µM
MIC (A. baumannii strains; Acinetobacter baumannii, KCCM40203, read-out: MIC, A. baumannii KCCM 40203): 5 µM (≈ 1.92 µg/mL)
MIC (A. baumannii strains; Acinetobacter baumannii, read-out: MIC, A. baumannii ATCC BBA 1605): > 20 µM
MIC (A. baumannii strains; Acinetobacter baumannii, read-out: MIC, A. baumannii Isolated strain 1): > 20 µM
MIC (A. baumannii strains; Acinetobacter baumannii, read-out: MIC, A. baumannii Isolated strain 3): > 20 µM
MIC (A. baumannii strains; Acinetobacter baumannii, read-out: MIC, A. baumannii Isolated strain 6): > 20 µM
MIC (A. baumannii strains; Acinetobacter baumannii, read-out: MIC, A. baumannii Isolated strain 10): > 20 µM
MIC (A. baumannii strains; Acinetobacter baumannii, read-out: MIC, A. baumannii Isolated strain 14): > 20 µM
MIC (A. baumannii strains; Acinetobacter baumannii, read-out: MIC, A. baumannii Isolated strain 15): < 0.31 µM
MIC (A. baumannii strains; Acinetobacter baumannii, read-out: MIC, A. baumannii Isolated strain 16): > 20 µM
MIC (A. baumannii strains; Acinetobacter baumannii, read-out: MIC, A. baumannii Isolated strain 19): > 20 µM
MIC (A. baumannii strains; Acinetobacter baumannii, read-out: MIC, A. baumannii Isolated strain 22): > 20 µM
MIC (A. baumannii strains; Acinetobacter baumannii, read-out: MIC, A. baumannii Isolated strain 39): > 20 µM
MIC (A. baumannii strains; Acinetobacter baumannii, read-out: MIC, A. baumannii Isolated strain 44): > 20 µM
MIC (A. baumannii strains; Acinetobacter baumannii, read-out: MIC, A. baumannii Isolated strain 66): > 20 µM
MIC (A. baumannii strains; Acinetobacter baumannii, read-out: MIC, A. baumannii Isolated strain 68): > 20 µM
MIC (A. baumannii strains; Acinetobacter baumannii, read-out: MIC, A. baumannii Isolated strain 69): > 20 µM
MIC (A. baumannii strains; Acinetobacter baumannii, read-out: MIC, A. baumannii Isolated strain 71): > 20 µM
MIC (A. baumannii strains; Acinetobacter baumannii, read-out: MIC, A. baumannii Isolated strain 76): > 20 µM
MIC (A. baumannii strains; Acinetobacter baumannii, read-out: MIC, A. baumannii Isolated strain 80): > 20 µM
MIC (A. baumannii strains; Acinetobacter baumannii, read-out: MIC, A. baumannii Isolated strain 82): > 20 µM
MIC (A. baumannii strains; Acinetobacter baumannii, read-out: MIC, A. baumannii Isolated strain 86): > 20 µM
MIC (A. baumannii strains; Acinetobacter baumannii, read-out: MIC, A. baumannii Isolated strain 89): > 20 µM
MIC (A. baumannii strains; Acinetobacter baumannii, read-out: MIC, A. baumannii Isolated strain 102): > 20 µM
MIC (A. baumannii strains; Acinetobacter baumannii, read-out: MIC, A. baumannii Isolated strain 127): > 20 µM
MIC (A. baumannii strains; Acinetobacter baumannii, read-out: MIC, A. baumannii Isolated strain 141): > 20 µM
MIC (A. baumannii strains; Acinetobacter baumannii, read-out: MIC, A. baumannii Isolated strain 144): > 20 µM
MIC (A. baumannii strains; Acinetobacter baumannii, read-out: MIC, A. baumannii Isolated strain 147): > 20 µM
MIC (A. baumannii strains; Acinetobacter baumannii, read-out: MIC, A. baumannii Isolated strain 152): > 20 µM
MIC (A. baumannii strains; Acinetobacter baumannii, read-out: MIC, A. baumannii NCCP 14654): > 20 µM
Number of A. baumannii strains at MIC (μM) 0.63 (A. baumannii strains; of 30 strains): 0
Number of A. baumannii strains at MIC (μM) 1.25 (A. baumannii strains; of 30 strains): 0
Number of A. baumannii strains at MIC (μM) 2.5 (A. baumannii strains; of 30 strains): 0
Number of A. baumannii strains at MIC (μM) 5 (A. baumannii strains; of 30 strains): 1
Number of A. baumannii strains at MIC (μM) 10 (A. baumannii strains; of 30 strains): 0
Number of A. baumannii strains at MIC (μM) ≤0.31 (A. baumannii strains; of 30 strains): 2
Number of A. baumannii strains at MIC (μM) ≥20 (A. baumannii strains; of 30 strains): 27
MIC (K. pneumonia strains; read-out: MIC, K. pneumonia NCCP 15782): > 20 µM
MIC (K. pneumonia strains; read-out: MIC, K. pneumonia NCCP 15864): > 20 µM
MIC (K. pneumonia strains; read-out: MIC, K. pneumonia NCCP 15866): > 20 µM
MIC (K. pneumonia strains; read-out: MIC, K. pneumonia NCCP 16052): > 20 µM
MIC (K. pneumonia strains; read-out: MIC, K. pneumonia NCCP 16124): > 20 µM
MIC (K. pneumonia strains; read-out: MIC, K. pneumonia NCCP 16125): > 20 µM
MIC (K. pneumonia strains; read-out: MIC, K. pneumonia NCCP 16128): 20 µM (≈ 7.67 µg/mL)
MIC (K. pneumonia strains; read-out: MIC, K. pneumonia NCCP 16208): > 20 µM
MIC (K. pneumonia strains; read-out: MIC, K. pneumonia NCCP 16212): > 20 µM
MIC (K. pneumonia strains; read-out: MIC, K. pneumonia NCCP 16213): > 20 µM

CC(C)C[C@H](NC(=O)[C@H](CCCNC(=N)N)NC(=O)CNC(=O)CNC(=O)[C@@H](N)CCCNC(=N)N)C(=O)N[C@H]1CSSC[C@@H](C(=O)N[C@H](C(=O)NCC(=O)N[C@@H](CCCNC(=N)N)C(N)=O)C(C)C)NC(=O)[C@H](C(C)C)NC(=O)[C@@H]2CSSC[C@H](NC(=O)[C@H](Cc3ccc(O)cc3)NC1=O)C(=O)N[C@@H](CCCNC(=N)N)C(=O)N[C@@H](CCCNC(=N)N)C(=O)N[C@@H](CCCNC(=N)N)C(=O)N[C@@H](Cc1ccccc1)C(=O)N2 [Protegrin-1, reference compound]
Hemolysis percent, 25 μM (human red blood cells): 47.83 ±6.23%
Hemolysis percent, 50 μM (human red blood cells): 56.75 ±6.02%
Hemolysis percent, 100 μM (human red blood cells): 71.66 ±12.24%
solubility ([1]; distilled water): < 500 µM

GVLVLFRRR-NH2 [Ptg C-ter 1]
MIC in 0.2% albumin and 0.01% AcOH added CLSI standard condition, MDR A. baumannii (MDR A. baumannii; [2]): > 20 µM
Minimum inhibitory concentrations, MDR A. baumannii (MDR A. baumannii; CLSI broth microdilution, CAMHB with 50 mg/L Ca2+, 10 mg/L Mg2+, 5 × 10^5 CFU/ml, 18 h 37 °C, triplicate, strain ATCC BAA-1605): > 20 µM
MIC in 0.2% albumin and 0.01% AcOH added CLSI standard condition, MDR E. faecalis (MDR E. faecalis; [2]): > 20 µM
Minimum inhibitory concentrations, MDR E. faecalis (MDR E. faecalis; CLSI broth microdilution, CAMHB with 50 mg/L Ca2+, 10 mg/L Mg2+, 5 × 10^5 CFU/ml, 18 h 37 °C, triplicate, strain ATCC 51575): > 20 µM
MIC in 0.2% albumin and 0.01% AcOH added CLSI standard condition, MDR P. aeruginosa (MDR P. aeruginosa; [2]): > 20 µM
Minimum inhibitory concentrations, MDR P. aeruginosa (MDR P. aeruginosa; CLSI broth microdilution, CAMHB with 50 mg/L Ca2+, 10 mg/L Mg2+, 5 × 10^5 CFU/ml, 18 h 37 °C, no visible turbidity, triplicate, strain CCARM 2180): > 20 µM
MIC in 0.2% albumin and 0.01% AcOH added CLSI standard condition, MDR S. aureus (MDR S. aureus; [2]): > 20 µM
Minimum inhibitory concentrations, MDR S. aureus (MDR S. aureus; CLSI broth microdilution, CAMHB with 50 mg/L Ca2+, 10 mg/L Mg2+, 5 × 10^5 CFU/ml, 18 h 37 °C, triplicate, strain KCCM 40510): > 20 µM
Hemolysis percent, 25 μM (human red blood cells): 0.40 ±0.10%
Hemolysis percent, 50 μM (human red blood cells): 0.99 ±0.26%
Hemolysis percent, 100 μM (human red blood cells): 1.17 ±0.07%
Maximum soluble concentration in PBS ([1]; lyophilized peptide reconstructed in PBS at 200-6.25 μM, visible turbidity checked every 12 h for 5 days, at least twice): 100 µM
